Measurements taken from US5385894A, “Disubstituted 6-aminoquinazolinones” (Merck & Co., Inc., priority 1994, dated 1995).

System: not listed separately
Test: log P (Table 1)
Type: physicochemical
Conditions: not given

SMILES | logP
CCCOC(=O)N(Cc1cccnc1)c1ccc2nc(CCC)n(Cc3ccc(-c4ccccc4-c4nn[nH]n4)cc3)c(=O)c2c1 [Example 158] | 3.8
CCCCOC(=O)N(CCCC)c1ccc2nc(CCC)n(Cc3ccc(-c4ccccc4-c4nn[nH]n4)cc3)c(=O)c2c1 [Example 24] | 6
CCCCCN(C(=O)c1ccc(Cl)cc1)c1ccc2nc(CCC)n(Cc3ccc(-c4ccccc4-c4nn[nH]n4)cc3)c(=O)c2c1 [Example 37] | > 6
CCCCN(C(=O)c1ccc(F)cc1)c1ccc2nc(CCC)n(Cc3ccc(-c4ccccc4-c4nn[nH]n4)cc3)c(=O)c2c1 [Example 44] | 4.7
CCCc1nc2ccc(N(Cc3ccccc3)C(=O)c3ccccc3)cc2c(=O)n1Cc1ccc(-c2ccccc2-c2nn[nH]n2)cc1 [Example 36] | 4.5
CCCc1nc2ccc(N(Cc3ccc(C(=O)OC)cc3)C(=O)c3ccccc3)cc2c(=O)n1Cc1ccc(-c2ccccc2-c2nn[nH]n2)cc1 [Example 183] | 4.4
CCCc1nc2ccc(N(Cc3ccccn3)C(=O)c3ccccc3)cc2c(=O)n1Cc1ccc(-c2ccccc2-c2nn[nH]n2)cc1 [Example 137] | 3.4
CCCc1nc2ccc(N(Cc3ccccc3)C(=O)c3ccc(C(=O)O)cc3)cc2c(=O)n1Cc1ccc(-c2ccccc2-c2nn[nH]n2)cc1 [Example 180] | 2.9
CCCc1nc2ccc(N(Cc3ccccc3)C(=O)c3cccnc3)cc2c(=O)n1Cc1ccc(-c2ccccc2-c2nnn[nH]2)cc1 [Example 134] | 3.7
CCCCCN(C(=O)c1cccnc1)c1ccc2nc(CCC)n(Cc3ccc(-c4ccccc4-c4nn[nH]n4)cc3)c(=O)c2c1 [Example 72] | 4.3
CCc1nc2ccc(N(Cc3ccccc3I)C(=O)c3ccccc3)cc2c(=O)n1Cc1ccc(-c2ccccc2-c2nn[nH]n2)cc1 [Example 117] | 4.6
Cc1nc2ccc(N(Cc3ccccc3Cl)C(=O)c3ccncc3)cc2c(=O)n1Cc1ccc(-c2ccccc2-c2nnn[nH]2)cc1 [Example 110] | 3.1
CCCCCN(C(=O)c1ccc(OCc2ccccc2)cc1)c1ccc2nc(CCC)n(Cc3ccc(-c4ccccc4-c4nnn[nH]4)cc3)c(=O)c2c1 [Example 128] | > 5.7
CCCc1nc2ccc(N(CC(=O)O)C(=O)c3ccccc3)cc2c(=O)n1Cc1ccc(-c2ccccc2-c2nnn[nH]2)cc1 [Example 120] | 2.1
CCCc1nc2ccc(N(Cc3ccccn3)C(=O)Oc3ccccc3)cc2c(=O)n1Cc1ccc(-c2ccccc2-c2nn[nH]n2)cc1 [Example 135] | 3.6
CCCOC(=O)N(Cc1ccccn1)c1ccc2nc(CCC)n(Cc3ccc(-c4ccccc4-c4nn[nH]n4)cc3)c(=O)c2c1 [Example 159] | 3.9
CCCCCN(C(=O)c1ccc([S+](C)[O-])cc1)c1ccc2nc(CCC)n(Cc3ccc(-c4ccccc4-c4nn[nH]n4)cc3)c(=O)c2c1 (centres unmarked) [Example 81] | 4.3
CCC(C)c1nc2ccc(N(Cc3ccccc3)C(=O)c3ccccc3)cc2c(=O)n1Cc1ccc(-c2ccccc2-c2nn[nH]n2)cc1 (centres unmarked) [Example 100] | 4.9
Cc1nc2ccc(N(Cc3ccccc3)C(=O)c3ccncc3)cc2c(=O)n1Cc1ccc(-c2ccccc2-c2nnn[nH]2)cc1 [Example 107] | 2.9
CCCc1nc2ccc(N(C)C(C)=O)cc2c(=O)n1Cc1ccc(-c2ccccc2S(=O)(=O)NC(=O)C2CC2)cc1 [Example 108] | 2.9
CCCCCN(C(=O)c1cccs1)c1ccc2nc(CCC)n(Cc3ccc(-c4ccccc4-c4nnn[nH]4)cc3)c(=O)c2c1 [Example 113] | 5.1

System: rats pretreated with scopolamine
Test: not given
Conditions: cited from earlier work

SMILES | activity in rat passive avoidance assay
CNC(=O)Oc1ccc2c(c1)[C@]1(C)CCN(C)[C@@H]1N2C [physostigmine] | active

System: male Sprague-Dawley rats
Test: not given
Conditions: rat; cited from earlier work

SMILES | activity in CER assay
CN1C(=O)CN=C(c2ccccc2)c2cc(Cl)ccc21 [Diazepam] | active
